The target of one assay is T1, D2 dopamine receptor (Homo sapiens, UniProt P14416).
T1 construct: expressed in transfected cells
Description: Ca2+ flux functional assay at D2. The conditions noted are these: for Emax: agonist, Ca2+ flux, max dose, read-out: D2 % Act @ Max Dose; for maximal efficacy at D2: compared to the N-methyl compound LSD. It counts as cell-based. How it is done:
Disclosed compounds were tested for agonist activity at several adrenergic (Alpha1A and Alpha2A) and dopamine (D1 and D2) receptor subtypes using Ca^2+ flux functional assays, with the results summarized in Table 6. Selectivity for the 5-HT2A receptor over these other targets varied depending on the specific target and compound.
Functional Assays at Adrenergic and Dopamine Receptors. Agonist activity at Alpha1A, Alpha2A, D1, and D2 receptors was determined using a FLIPR Ca^2+ flux assay at WuXi AppTec (Hong Kong) Limited according to their standard protocols. Briefly, stably transfected cells expressing the receptor of interest were grown and plated in a 384 well plate and incubated at 37° C. and 5% CO2 overnight. A solution of 250 mM probenecid in 1 mL FLIPR assay buffer was prepared fresh. This was combined with a fluorescent dye (Fluo-4 Direct™) to make a final assay concentration of 2.5 mM. Compounds were diluted 1:3.16 for 10 points and 750 nL was added to a 384 well compound plate using ECHO along with 30 μL assay buffer. The fluorescent dye was then added to the assay plate along with assay buffer to a final volume of 40 μL. The cell plate was incubated for 50 min at 37° C. and 5% CO2 and placed into the FLIPR Tetra along with the compound plate. 10 μL of references and compounds were then transferred from the compound plate into the cell plate and the fluorescent signal was read.
(Calcium assays in cells follow changes in intracellular calcium, usually with a dye or a luminescent sensor.)

The subject of a further assay is C57BL/6 mice. Description: Automated mouse head twitch response (HTR) assay (video tracking). It counts as in vivo. As to conditions: for # HTR/20 min at Most Efficacious Dose / Most Efficacious Dose for Peak HTR/min / Most Efficacious Dose for # HTR/20 min / Peak HTR/min at Most Efficacious Dose: sc. The method in brief: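 Adult male C57BL/6 mice (8-10 weeks, 18-25 g) received a single drug dose and were video-recorded in a small open field for 20 min immediately after dosing. HTR events were detected automatically from periodic ear-position deviations above preset thresholds. Values are total HTR counts over 20 min and HTR/min in 2-min bins, mean±SEM.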

Molecules are shown by their SMILES.

T1 sequence (P14416 whole entry): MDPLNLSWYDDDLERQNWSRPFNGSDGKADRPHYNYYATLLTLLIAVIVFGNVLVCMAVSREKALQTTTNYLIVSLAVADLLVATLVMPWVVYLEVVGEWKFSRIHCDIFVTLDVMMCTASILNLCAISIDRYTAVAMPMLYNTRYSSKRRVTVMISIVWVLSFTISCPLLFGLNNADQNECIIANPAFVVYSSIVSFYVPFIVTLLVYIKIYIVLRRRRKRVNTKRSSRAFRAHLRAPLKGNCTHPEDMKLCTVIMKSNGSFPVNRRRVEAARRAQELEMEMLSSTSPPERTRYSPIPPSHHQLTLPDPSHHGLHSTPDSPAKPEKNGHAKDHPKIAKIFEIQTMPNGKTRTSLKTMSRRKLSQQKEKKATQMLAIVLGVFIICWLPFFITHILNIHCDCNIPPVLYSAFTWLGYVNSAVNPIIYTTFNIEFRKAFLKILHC

Consider `CCCN1C[C@H](C(=O)NC(CC)CC)C=C2c3cccc4[nH]cc(c34)C[C@H]21` [Compound 6, (6aR,9R)—N-(pentan-3-yl)-7-propyl-4,6,6a,7,8,9-hexahydroindolo[4,3-fg]quinoline-9-carboxamide], for which, on D2 dopamine receptor, the Emax was 91.7% and the “maximal efficacy at D2” value is “substantially higher maximal efficacy”.

On to `CCN(CC)C(=O)[C@@H]1C=C2c3cccc4[nH]cc(c34)C[C@H]2N(Cc2ccccc2OC)C1` [Compound 10, (6aR,9R)—N,N-diethyl-7-(2-methoxybenzyl)-4,6,6a,7,8,9-hexahydroindolo[4,3-fg]quinoline-9-carboxamide], for which the Emax at D2 dopamine receptor was 86.9%.

With `CCN(CC)C(=O)[C@@H]1C=C2c3cccc4[nH]cc(c34)C[C@H]2N(CCCF)C1` [Compound 2, (6aR,9R)—N,N-diethyl-7-(3-fluoropropyl)-4,6,6a,7,8,9-hexahydroindolo[4,3-fg]quinoline-9-carboxamide], at D2 dopamine receptor, the Emax was 91.2% and the “maximal efficacy at D2” value is given as “substantially higher maximal efficacy”.

On to `CCCN1C[C@H](C(=O)N2[C@@H](C)C[C@@H]2C)C=C2c3cccc4[nH]cc(c34)C[C@H]21` [Compound 4, ((2S,4S)-2,4-dimethylazetidin-1-yl)((6aR,9R)-7-propyl-4,6,6a,7,8,9-hexahydroindolo[4,3-fg]quinolin-9-yl)methanone], for which, at D2 dopamine receptor, the Emax came out at 117% and the “maximal efficacy at D2” value is listed as “substantially higher maximal efficacy”.

In the case of `CCCN1C[C@H](C(=O)N(CC)CC)C=C2c3cccc4[nH]cc(c34)C[C@H]21` [Compound 1, (6aR,9R)—N,N-diethyl-7-propyl-4,6,6a,7,8,9-hexahydroindolo[4,3-fg]quinoline-9-carboxamide], in the assay with C57BL/6 mice (20 min recording, mean, at each compound's most efficacious dose (35*, 43*, 44*: suppressed below vehicle 14.5, dose is that of least suppression)), the “# HTR/20 min at Most Efficacious Dose” value is on record as 20.625 HTR/20 min. In addition, the “Most Efficacious Dose for Peak HTR/min” value in the assay on C57BL/6 mice (dose giving highest peak HTR/min (35*, 43*, 44*: dose that resulted in the least suppression)) was “(0.32) mg/kg, sc”. In addition, the “Most Efficacious Dose for # HTR/20 min” value in the assay on C57BL/6 mice (dose giving most HTR/20 min (35*, 43*, 44*: dose that resulted in the least suppression)) was “(0.32) mg/kg, sc”. In the assay with C57BL/6 mice (rate over 2-min bins, mean, at each compound's most efficacious dose (35*, 43*, 44*: suppressed below vehicle 1.62, dose is that of least suppression)), the “Peak HTR/min at Most Efficacious Dose” value amounted to 2.19 HTR/min. At D2 dopamine receptor, the Emax came out at 94.5% and the “maximal efficacy at D2” value is listed as “substantially higher maximal efficacy”.

With `CCCN1C[C@H](C(=O)N[C@H](C)CC)C=C2c3cccc4[nH]cc(c34)C[C@H]21` [Compound 3, (6aR,9R)—N—((R)-sec-butyl)-7-propyl-4,6,6a,7,8,9-hexahydroindolo[4,3-fg]quinoline-9-carboxamide], at D2 dopamine receptor, the Emax worked out at 117% and the “maximal efficacy at D2” value is listed as “substantially higher maximal efficacy”.

For `CCN(CC)C(=O)[C@@H]1C=C2c3cccc4[nH]cc(c34)C[C@H]2N(C)C1` [LSD, lysergic acid diethylamide, reference compound], in the assay with C57BL/6 mice (in vivo), the “head twitch response, automated” value is “potent and robust increase in HTRs”; the “# HTR/20 min at Most Efficacious Dose” value is recorded as 44.62 HTR/20 min; the “Most Efficacious Dose for # HTR/20 min” value is recorded as “(0.1) mg/kg, sc”; the “Most Efficacious Dose for Peak HTR/min” value is listed as “(0.032) mg/kg, sc”. Also, the “Peak HTR/min at Most Efficacious Dose” value in the assay on C57BL/6 mice (in vivo) turned out to be 4.13 HTR/min. On D2 dopamine receptor, the Emax was found to be 78.3%.

These data come from patent US20260317319A1, “NOVEL ERGOLINES AND METHODS OF TREATING MOOD DISORDERS” (Gilgamesh Pharma Inc., priority 2023, published 2026).
